Experimental data: PMC9307952, “Lipoate protein ligase B primarily recognizes the C8-phosphopantetheine arm of its donor substrate and weakly binds the acyl carrier protein” (The Journal of Biological Chemistry, 2022)

What was measured:
[1] = biological target: T1, E. coli LipB (EcLipB) (Escherichia coli, UniProt P60720, K135A/C169A); conditions: 15N-labelled inactive double mutant, C8-CoA up to 1:2 molar ratio
[2] = biological target: E. coli LipB (EcLipB) (Escherichia coli, UniProt P60720, R71A); conditions: CoA:LipB 10:1, 50 mM Tris, 200 mM NaCl, pH 7.8, 283 K
[3] = biological target: E. coli LipB (EcLipB) (Escherichia coli, UniProt P60720, C169A); conditions: CoA:LipB 8:1, 50 mM Tris, 200 mM NaCl, pH 7.8, 298 K
[4] = biological target: E. coli LipB (EcLipB) (Escherichia coli, UniProt P60720, G72A/G73A); conditions: CoA:LipB 10:1 (STD, 283 K) or 8:1 (31P, 298 K), 50 mM Tris, 200 mM NaCl, pH 7.8
[5] = biological target: T1, E. coli LipB (EcLipB); conditions: CoA:LipB 10:1, 50 mM Tris, 200 mM NaCl, pH 7.8, 283 K

Compound | 15N TROSY-HSQC NMR titration [1] | 1H STD NMR [2] | 31P NMR [3] | 1H STD NMR; 31P NMR [4] | 1H STD NMR [5]
CCCCCCCC(=O)SCCNC(=O)CCNC(=O)[C@H](O)C(C)(C)COP(=O)(O)OP(=O)(O)OC[C@H]1O[C@@H](n2cnc3c(N)ncnc32)[C@H](O)[C@@H]1OP(=O)(O)O [C8-CoA] | The pattern of amide perturbations though confirmed that E. coli LipB binds C8-CoA |  |  |  | 
CC(C)(COP(=O)(O)OP(=O)(O)OC[C@H]1O[C@@H](n2cnc3c(N)ncnc32)[C@H](O)[C@@H]1OP(=O)(O)O)[C@@H](O)C(=O)NCCC(=O)NCCS [CoA] |  | visible in both the spectra, suggesting binding of CoA with the mutants | upfield change in chemical shift upon addition of WT LipB | visible in both the spectra, suggesting binding of CoA with the mutants | STD spectra for CoA in the presence of WT LipB, LipBK135A/C169A (catalytically inactive double mutant)
